Source: ChEMBL document CHEMBL1201862, “PubChem BioAssay data set” (2004)
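Results reflect a 48-hour exposure of cells in 96-well plates to compound at five concentrations. The concentration for 50% growth inhibition is given as GI50.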 The source made the active and inactive calls. No stated cut-off is given here; in the data, active = GI50 up to about 1.1 µM and inactive = higher.

Legend:
Assay in all cases: inhibition of tumour cell growth, NCI panel, 48 h
NCI-H522 = test system: NCI-H522
KM12 = test system: KM12
HL-60 = test system: HL-60
OVCAR-8 = test system: OVCAR-8
SF-268 = test system: SF-268
HCT-15 = test system: HCT-15
LXFL 529 = test system: LXFL 529
LOX IMVI = test system: LOX IMVI
HOP-62 = test system: HOP-62
CAKI-1 = test system: CAKI-1
UACC-257 = test system: UACC-257
SF-295 = test system: SF-295
SNB-19 = test system: SNB-19
MOLT-4 = test system: MOLT-4
OVCAR-4 = test system: OVCAR-4
NCI-H23 = test system: NCI-H23
HT-29 = test system: HT-29
MDA-MB-435 = test system: MDA-MB-435
SR = test system: SR
Hs-578T = test system: Hs-578T

| Compound | GI50 (NCI-H522) | GI50 (KM12) | GI50 (HL-60) | GI50 (OVCAR-8) | GI50 (SF-268) | GI50 (HCT-15) [µM] | GI50 (LXFL 529) | GI50 (LOX IMVI) | GI50 (HOP-62) | GI50 (CAKI-1) | GI50 (UACC-257) | GI50 (SF-295) | GI50 (SNB-19) | GI50 (MOLT-4) | GI50 (OVCAR-4) | GI50 (NCI-H23) | GI50 (HT-29) | GI50 (MDA-MB-435) | GI50 (SR) | GI50 (Hs-578T) |
| --- | --- | --- | --- | --- | --- | --- | --- | --- | --- | --- | --- | --- | --- | --- | --- | --- | --- | --- | --- | --- |
| O=C(O)C1C2CC3CC2CC31 (centres undefined) | > 100 µM (inactive) | > 100 µM (inactive) | > 100 µM (inactive) | > 100 µM (inactive) | > 100 µM (inactive) | > 100 | > 100 µM (inactive) | > 100 µM (inactive) | > 100 µM (inactive) | > 100 µM (inactive) | > 100 µM (inactive) | > 100 µM (inactive) | > 100 µM (inactive) | > 100 µM (inactive) | > 100 µM (inactive) | > 100 µM (inactive) | – | – | – | – |
| O=C(C(Cl)Cl)N(O)c1ccccc1OCc1ccccc1 | 25.6 µM (inactive) | 28.2 µM (inactive) | 27.6 µM (inactive) | 8.95 µM (inactive) | 73.3 µM (inactive) | 44.2 | – | 43.9 µM (inactive) | > 100 µM (inactive) | 85.9 µM (inactive) | 13.7 µM (inactive) | 57.7 µM (inactive) | 57.7 µM (inactive) | 41.6 µM (inactive) | 26.6 µM (inactive) | > 100 µM (inactive) | 17.2 µM (inactive) | 43.2 µM (inactive) | 22.9 µM (inactive) | 19.5 µM (inactive) |
| O=C1C=C(OCCCl)C(=O)c2c(O)ccc(O)c21 | 2.32 µM (inactive) | 2.07 µM (inactive) | 1.11 µM (active) | 1.94 µM (inactive) | 0.931 µM (active) | 0.209 | – | 0.202 µM (active) | 0.589 µM (active) | 2.03 µM (inactive) | 0.177 µM (active) | 1.56 µM (inactive) | 1.02 µM (active) | 1.72 µM (inactive) | 1.64 µM (inactive) | 0.242 µM (active) | 0.378 µM (active) | 0.204 µM (active) | 0.861 µM (active) | 3.98 µM (inactive) |
| O=c1oc2ccc([N+](=O)[O-])cc2c(Nc2ccc3c(c2)S(=O)(=O)c2ccccc2O3)c1[N+](=O)[O-] | 87.1 µM (inactive) | > 100 µM (inactive) | > 100 µM (inactive) | > 100 µM (inactive) | 88.5 µM (inactive) | 83 | – | 78.2 µM (inactive) | 49.9 µM (inactive) | > 100 µM (inactive) | > 100 µM (inactive) | 60.4 µM (inactive) | 77.1 µM (inactive) | 40.1 µM (inactive) | > 100 µM (inactive) | > 100 µM (inactive) | 65.9 µM (inactive) | > 100 µM (inactive) | 32.4 µM (inactive) | 72.1 µM (inactive) |
| CC(C)SC1SCC2C(=O)N(C)C3(CC3C)C(=O)OCC(NC(=O)c3nc4ccccc4cc3O)C(=O)NC(C)C(=O)N(C)C1C(=O)N(C)C1(CC1C)C(=O)OCC(NC(=O)c1nc3ccccc3cc1O)C(=O)NC(C)C(=O)N2C (centres undefined) | < 0.0001 µM (active) | < 0.0001 µM (active) | < 0.0001 µM (active) | < 0.0001 µM (active) | < 0.0001 µM (active) | < 0.0001 | – | < 0.0001 µM (active) | < 0.0001 µM (active) | < 0.0001 µM (active) | < 0.0001 µM (active) | < 0.0001 µM (active) | < 0.0001 µM (active) | < 0.0001 µM (active) | < 0.0001 µM (active) | < 0.0001 µM (active) | < 0.0001 µM (active) | < 0.0001 µM (active) | < 0.0001 µM (active) | < 0.0001 µM (active) |
| Cc1ccc(S(=O)(=O)N2CCCC2C(=O)O[C@H]2CC[C@H]3CC=C[C@H]32)cc1 (some centres undefined) | > 10 µM (inactive) | > 100 µM (inactive) | > 10 µM (inactive) | 31.8 µM (inactive) | > 100 µM (inactive) | > 10 | – | 20.7 µM (inactive) | 45.4 µM (inactive) | > 100 µM (inactive) | 23.8 µM (inactive) | 23.7 µM (inactive) | 76.9 µM (inactive) | 7.89 µM (inactive) | > 55.8 µM (inactive) | 35.6 µM (inactive) | 40.3 µM (inactive) | 80.2 µM (inactive) | 24.9 µM (inactive) | 41.4 µM (inactive) |
| CC(C)(C)OC(=O)N/C=C1\C(=O)Oc2ccccc2C1=O | < 0.01 µM (active) | 37.9 µM (inactive) | > 100 µM (inactive) | 40.6 µM (inactive) | 25.2 µM (inactive) | 11.3 | – | 37.8 µM (inactive) | 17.1 µM (inactive) | 15 µM (inactive) | 31.3 µM (inactive) | 38.5 µM (inactive) | 38 µM (inactive) | > 100 µM (inactive) | 33 µM (inactive) | 42.4 µM (inactive) | > 100 µM (inactive) | 39.2 µM (inactive) | > 100 µM (inactive) | 13.9 µM (inactive) |
| O=C(CBr)NCCc1c[nH]c2ccccc12 | 0.229 µM (active) | 1.93 µM (inactive) | 1.7 µM (inactive) | 3.33 µM (inactive) | 2.16 µM (inactive) | 1.76 | – | 0.482 µM (active) | 1.94 µM (inactive) | 0.776 µM (active) | 3.01 µM (inactive) | 13.7 µM (inactive) | 6.17 µM (inactive) | 0.406 µM (active) | 1.79 µM (inactive) | 1.46 µM (inactive) | 1.83 µM (inactive) | 1.52 µM (inactive) | 0.344 µM (active) | 5.14 µM (inactive) |
